Measured values as given in patent EP4682144A1, “SOLID FORM OF PYRROLIDONE DERIVATIVE AS GLUCOKINASE ACTIVATOR” (Hua Medicine (Shanghai) Ltd., priority 2023, dated 2024).
In brackets after ≈: the same amount, converted by molar mass.

How the values were obtained:
[1] = Preliminary solubility test in solvents at room temperature; type: physicochemical; settings: for solubility: thermodynamic from solid
Method: Table 10 Solubility range of the starting material sample at room temperature
The solubility range in the corresponding solvent was calculated based on the mass of the sample and the volume of the added solvent, as shown in Table 28. The data were used as a base to guide the selection of solvent in screening tests. Table 28 Preliminary solubility of crystal form A of the free state at room temperature
The solubility range in the corresponding solvent was calculated based on the mass of the sample and the volume of the added solvent, as shown in Table 35. The data were used as a base to guide the selection of solvent in the screening tests.

C57BL/6J mice [2] = assay: Plasma insulin level test during OGTT; type: in vivo
Method: (§1) There were 7 groups of mice, with 8 mice in each group. […] Oral glucose tolerance test (OGTT) was performed 1 hour after administration. The blood glucose level in mice was tested before administration (-60 min), before sugar administration (0 min), and at 15 min, 30 min, 60 min, and 120 min after sugar administration. In addition, 40 µl of blood was collected from the tail tip before sugar administration (0 min) and at 15 min after sugar administration to collect the plasma for an insulin level test.
(§2) All data was transferred into an Excel document. The blood glucose results were expressed in mg/dL and expressed as MEAN ± SEM. Differences between multiple groups were analyzed using Dunnett's method in one-way analysis of variance (ANOVA) or two-way analysis of variance (ANOVA) with Graphpad Prism 8 software for comparison, and the differences were considered statistically significant when the P value was less than 0.05.

[3] = Caco-2 bi-directional permeability test; settings: human; for recovery at 2 h, 2 µM: Compound A concentration 2.00 µM; for recovery at 2 h, 10 µM: Compound A concentration 10.0 µM
Method: (§3) Caco-2 cell culture: Caco-2 cells (purchased from American Type Culture Collection, ATCC) were inoculated on polyethylene film (PET) of a 96-well culture plate at a concentration of 1x10^5 cells/cm^2. The culture medium was replaced every 4 days until cell confluency to form cell monolayer on day 21 or 28.
(§4) Transport test: Transport buffer used in the test was Hanks' Balanced Salt Solution (HBSS) containing 10 mM 2-[4-(2-hydroxyethyl)-1-piperazinyl] ethanesulfonic acid (HEPES) with a pH of 7.40 ± 0.05. In vitro permeability studies were performed with Nadolol, Metoprolol and Digoxin as model permeants. […] Digoxin was assessed bi-directionally with a test concentration of 10.0µM (n=2). Nadolol and Metoprolol were assessed unidirectionally both with a test concentration of 2.00 µM (n=2). The final concentration of DMSO in the incubation system was adjusted to <1%.

Caco-2 cells = assay: Caco-2 bi-directional permeability test; settings: Caco-2
Method: as §3, §4

C57BL/6J mice [4] = assay: Oral glucose tolerance test (OGTT), glucose-lowering effect; type: in vivo; settings: for blood glucose values after glucose administration: compound A-49.1 mg/kg group, 60 min, and 120 min
Method: as §1, §2

[5] = Pharmacokinetic study in rats (IV and PO); type: in vivo, SD male rats; settings: rats, intravenous injection
Method: Each group was divided into 2 subgroups (intravenous bolus group (IV) and gavage group (PO)).
Whole blood samples (about 0.2 mL per time point) were collected at pre-dose (0), 0.083, 0.25, 0.5, 1, 2, 4, 8, 12, and 24 hours post-dose by jugular vein puncture. All the blood samples were immediately transferred into labeled pre-chilled commercial microcentrifuge tubes containing 4 µL of 0.5M K2-EDTA and 10 µL of cocktail stabilizer. Samples were placed on wet ice until centrifugation (within 30 min). Plasma samples were then prepared by centrifuging the blood samples at approximately 4 °C, 3200xg for 10 minutes. Supernatant plasma was pipetted, then quickly frozen over dry ice, and then kept at -60 °C or lower temperature until LC-MS/MS analysis.
The plasma concentrations were subjected to a non-compartmental pharmacokinetic analysis by using the WinNonlin™ software program (version 6.3).

[6] = Simulated metabolic test in human intestine S9; type: in vitro ADME
Method: Preparation of phosphate buffer (PB): 73.21 g of K2HPO4·3H2O (AR grade) and 10.78 g of KH2PO4 (AR grade) were dissolved in ultra-pure water to obtain a final volume of 4000 mL and a final concentration of 100 mM. The pH of the final test solution was adjusted to 7.40±0.10 with H3PO4/KOH.
An Apricot automation workstation was used to add 50 µL/well of HIS9 solution to the corresponding wells of all reaction plates (blank, T0, T5, T15, T30, T45, T60).
An Apricot automation workstation was used to add 48 µL/well of PB to the corresponding wells of every reaction plate (blank, T0, T5, T15, T30, T45, T60) to start the reaction.
The reaction plates were incubated at 37 °C, and timer was started. An Apricot automation workstation was used to add 300 µL/well of stop solution (cold acetonitrile containing 200 ng/mL tolbutamide (internal standard)) to the corresponding wells of each reaction plate at the appropriate end time point to stop the reaction.
Each plate was sealed and shaken for 10 minutes. Each plate was centrifuged at 4000 rpm and 4 °C for 20 minutes. After centrifugation, 100 µL of supernatant was transferred from each reaction plate to the corresponding analysis plate, and mixed well with 300 µL of ultra-pure water.

[7] = Caco-2, pH 7.4, Average recovery rate (%) A→B
[8] = Caco-2, pH 7.4, Average recovery rate (%) B→A

Question: What does the source list for `CC(C)C[C@@H](C(=O)Nc1ccn(C[C@@H](O)COC(=O)c2cccnc2)n1)N1CC(Oc2ccccc2Cl)=CC1=O` [Compound A, (R)-3-(3-((S)-2-(4-(2-chlorophenoxy)-2-oxo-2,5-dihydro-1H-pyrrol-1-yl)-4-methylpentanamido)-1H-pyrazol-1-yl)-2-hydroxypropyl nicotinate]?
Answer: Solubility (mg/mL) ([1]; 1,4-Dioxane, room temperature): S>42.0 mg/mL; Solubility (mg/mL) ([1]; 2-MeTHF, room temperature): S>42.0 mg/mL; solubility ([1]; 2-MeTHF/n-Heptane (1:4) v/v, 25 °C, organic solvent or mixture, 2-MeTHF/n-Heptane (1:4) v/v, room temperature): < 1000 µg/mL; Solubility (mg/mL) ([1]; ACN, room temperature): S>50.0 mg/mL; solubility ([1]; Cyclohexane, 25 °C, organic solvent or mixture, room temperature): < 1100 µg/mL; solubility ([1]; DCM, 25 °C, organic solvent or mixture, room temperature): > 44000 µg/mL; solubility ([1]; DMAc, 25 °C, organic solvent or mixture, room temperature): > 42000 µg/mL; solubility ([1]; DMSO, 25 °C, organic solvent or mixture, room temperature): > 44000 µg/mL; Solubility (mg/mL) ([1]; EtOAc, room temperature): S>48.0 mg/mL; solubility ([1]; EtOAc/n-heptane (1:4 v/v), 25 °C, organic solvent or mixture, EtOAc/n-Heptane (1:4) v/v, room temperature): < 1100 µg/mL; Solubility (mg/mL) ([1]; EtOH, room temperature): S>46.0 mg/mL; solubility ([1]; EtOH/H2O (1:2) v/v, 25 °C, aqueous with cosolvent or surfactant or cyclodextrin, EtOH/H2O (1:2) v/v, room temperature): 2100 to 5300 µg/mL (≈ 3.7 to 9.33 mM); solubility ([1]; H2O, 25 °C, water, room temperature): < 1100 µg/mL; Solubility (mg/mL) ([1]; IPA, room temperature): S>38.0 mg/mL; Solubility (mg/mL) ([1]; IPAc, room temperature): S>44.0 mg/mL; Solubility (mg/mL) ([1]; MIBK, room temperature): S>40.0 mg/mL; solubility ([1]; MeOH, 25 °C, organic solvent or mixture, room temperature (25±3 °C)): > 50000 µg/mL; solubility ([1]; NMP, 25 °C, organic solvent or mixture, room temperature): > 44000 µg/mL; solubility ([1]; THF, 25 °C, organic solvent or mixture, room temperature): > 40000 µg/mL; solubility ([1]; Toluene/n-Heptane (1:1) v/v, 25 °C, organic solvent or mixture, Toluene/n-Heptane (1:1) v/v, room temperature): 1000 to 2000 µg/mL (≈ 1.76 to 3.52 mM); solubility ([1]; acetone, 25 °C, organic solvent or mixture, room temperature): > 46000 µg/mL; solubility ([1]; acetone/H2O (1:2 v/v), 25 °C, aqueous with cosolvent or surfactant or cyclodextrin, Acetone/H2O (1:2) v/v, room temperature): 5300 to 10500 µg/mL (≈ 9.33 to 18.5 mM); solubility ([1]; chcl3, 25 °C, organic solvent or mixture, CHCl3, room temperature): > 48000 µg/mL; solubility ([1]; n-Heptane, 25 °C, organic solvent or mixture, room temperature): < 1100 µg/mL; insulin level at 0 min (C57BL/6J mice [2]; compound A high-dose group): significantly higher than that of the vehicle control group and the HMS5552 high-dose group; insulin level at 15 min (C57BL/6J mice [2]; compound A-18.4mg/kg group versus corresponding dose group of HMS5552): significantly higher than that of the corresponding dose group of HMS5552; insulin level at 15 min (C57BL/6J mice [2]; compound A-18.4mg/kg group versus vehicle control group): significantly higher than that of the vehicle control group; insulin level at 15 min (C57BL/6J mice [2]; compound A-49.1mg/kg group versus vehicle control group): significantly higher than that of the vehicle control group; recovery at 2 h, 2 µM [3, 7]: 52.9%; recovery at 2 h, 10 µM [3, 7]: 37.5%; recovery at 2 h, 2 µM [3, 8]: 87.1%; recovery at 2 h, 10 µM [3, 8]: 81.6%; recovery at 2 h, 30 µM ([3]; Caco-2, pH 7.4, Average recovery rate (%) B→A, Compound A concentration 30.0 µM): 82.2%; permeability from A side to B side (Caco-2 cells): low; permeability from B side to A side (Caco-2 cells): high; glucose-lowering effect in mice (C57BL/6J mice [4]; C57BL/6J mice, OGTT): good glucose-lowering effect; blood glucose level at 0 min (pre-glucose) (C57BL/6J mice [4]; C57BL/6J mice, oral, 1 hour after administration, versus vehicle control group, dose-response relationship): generally lower than that of the vehicle control group; blood glucose values after glucose administration (C57BL/6J mice [4]; at 15 min, 30 min, versus vehicle control group): significantly lower than that of the vehicle control group; blood glucose values after glucose administration (C57BL/6J mice [4]; at 30 min, versus HMS5552-40mg/kg group): significantly lower than that of the HMS5552-40mg/kg group; AUC0-120min of OGTT blood glucose (C57BL/6J mice [4]; medium and high dose groups of compound A versus corresponding dose groups of HMS5552): significantly lower than those of the corresponding dose groups of HMS5552; metabolism in rats by intravenous injection [5]: metabolized very rapidly; time until completely metabolized and converted into the parent drug HMS5552 [6]: ≤ 5 min
